According to patent US6998233B2, “Methods for ligand discovery” (Sunesis Pharmaceuticals, Inc., priority 1998, dated 2006):
Like-named read-outs stand apart in the source and are kept apart here.

Key:
E. coli TS = E. coli TS (Escherichia coli, UniProt P0A884); experiment: Thymidylate synthase inhibition, enzymatic assay (Michaelis-Menten kinetics) on tether-free analogs; assay type: biochemical
Source text: TS is an ideal validating target for several reasons. […] Second, a simple colorimetric assay exists for determining whether a potential ligand binds to TS. This assay depends on the rate of conversion of 5,10-CH2—H4folate to H2folate in the presence of dUMP. A second assay for binding is also spectrophotometric and relies on competition with pyridoxal-5′-phosphate (“PLP”), which forms a complex with TS with a unique spectral signature.
The TS chosen for the purposes of illustration is the E. coli TS. […] The E. coli TS includes four other cysteines but these are not conserved among other TS enzymes and are buried and thus not accessible. However, if one or more of these cysteines were reactive toward disulfides, then mutant versions of these enzymes can be used where these cysteines are mutated to another amino acid such as alanine.
In one illustrative example, the tethering experiment is performed in the presence of a known substrate. […] In contrast, a ligand candidate that lacks an inherent binding affinity or cysteamine would be easily displaced by the substrate. Another illustrative example is traditional enzymatic assays on the tether-free analog. For example, the affinity of the [drawing 14] R^c portion of the ligand fragment was determined using Michaelis-Mention kinetics.
The inhibition constants of the untethered versions of the selected ligand candidates were determined.

caspase-3 [1] = molecular target: T1, caspase-3 (Homo sapiens, UniProt P42574); experiment: Modification of caspase-3 with extender (mass-spectroscopy); assay type: binding; conditions: ambient temperature, 3.5 hours
T1 sequence (P42574 29-175 limits assumed): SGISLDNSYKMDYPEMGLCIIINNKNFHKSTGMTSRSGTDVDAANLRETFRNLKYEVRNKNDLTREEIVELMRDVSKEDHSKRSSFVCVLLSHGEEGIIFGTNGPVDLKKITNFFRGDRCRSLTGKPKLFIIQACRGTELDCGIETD
T1 sequence (P42574 176-277 limits assumed): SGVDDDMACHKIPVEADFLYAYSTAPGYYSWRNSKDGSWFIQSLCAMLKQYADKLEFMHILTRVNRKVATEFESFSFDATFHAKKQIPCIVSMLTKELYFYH
Source text: (§1) This example describes the modification of caspase-3 with extender 13. Caspase-3 was cloned, overexpressed, and purified using standard techniques. […] The protein was concentrated in a Ultrafree 5 MWCO unit and the buffer exchanged to 0.1 M TES pH 7.5 using a Nap-5 column.

caspase-3 [2] = molecular target: T1, caspase-3; experiment: Caspase-3 inhibition (Ki); assay type: biochemical; conditions: for change of binding affinity relative to compound 18: removal of hydroxyl group / hydroxyl and acid moiety
[3] = assay type: physicochemical
Description: The thiirane (17 mg, 0.047 mmol) was dissolved in dry DCM (5 ml), chilled in an ice-water bath, and treated with 5 ml trifluoroacetic acid. The reaction was allowed to proceed on ice for 40 minutes at which point it was evaporated to dryness and purified using reverse phase HPLC to yield compound 40 as a white solid (1.8 mg, 0.0058 mmol, 13%, ES (+) MS m/z=332 (M+Na)). […] It is generally preferred that the conjugation reaction of this extender to the active site thiol of caspases is performed for only 2–5 minutes at pH 6 and at low stoichiometries with respect to enzyme (1–3 equivalents)

[4] = molecular target: T2, target-extender complex 14′ (caspase-3 modified with extender 14) (Homo sapiens, UniProt P42574); experiment: Tethering with extender, target-extender complex 14′; assay type: binding; conditions: library of about 10,000 ligand candidates
T2 construct: made in house
T2 sequence (P42574 29-175): T1 sequence (P42574 29-175 limits assumed)
T2 sequence (P42574 176-277): T1 sequence (P42574 176-277 limits assumed)
Source text: (§2) Target-extender complexes 13′ and 14′ were each used in the tethering method against a library of about 10,000 ligand candidates. An illustrative example of a selected ligand-candidate using target-extender complex 13′ is [drawing 39]

[5] = molecular target: T3, target-extender complex 13′ (caspase-3 modified with extender 13) (Homo sapiens, UniProt P42574); experiment: Tethering with extender, target-extender complex 13′; assay type: binding; conditions: library of about 10,000 ligand candidates
T3 construct: made in house
T3 sequence (P42574 29-175): T1 sequence (P42574 29-175 limits assumed)
T3 sequence (P42574 176-277): T1 sequence (P42574 176-277 limits assumed)
Source text: as §2, §1

[6] = untethered versions of selected ligand candidates, Example 6
[7] = Table 2, glutamate-grafted N-tosyl-proline derivatives

Sequence of E. coli TS (P0A884 whole entry): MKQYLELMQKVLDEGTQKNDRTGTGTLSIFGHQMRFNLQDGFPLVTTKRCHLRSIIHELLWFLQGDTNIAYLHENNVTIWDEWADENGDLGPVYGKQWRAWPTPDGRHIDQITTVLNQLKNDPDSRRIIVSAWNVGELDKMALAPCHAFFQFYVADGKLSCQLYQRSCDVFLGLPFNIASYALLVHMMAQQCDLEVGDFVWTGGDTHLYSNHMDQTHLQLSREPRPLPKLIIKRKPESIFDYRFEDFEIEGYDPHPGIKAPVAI

In the case of `Cc1ccc(S(=O)(=O)N2CCC[C@@H]2C(=O)O)cc1` [compound 1, N-tosyl-D-proline], the mode of inhibition (E. coli TS; competed with the natural substrate dUMP) is reported as “weak but competitive inhibitor” and the Ki (E. coli TS; free acid, Michaelis-Menten kinetics) is reported as 1100 ± 250 µM.

For `O=C(O)COc1ccc(/C=N/OCCCO/N=C/c2ccc(S(=O)(=O)N3CCCC3C(=O)O)cc2)cc1` (stereo not shown) [compound 2], the Ki (E. coli TS; [6]) was about 55 µM.

For `O=C(O)COc1ccc(/C=N\OCCCCCCO/N=C/c2ccc(S(=O)(=O)N3CCCC3C(=O)O)cc2)cc1` (stereo not shown) [compound 3], the Ki (E. coli TS; [6]) was about 40 µM.

`O=C(O)C[C@H](NC(=O)c1ccc(S(=O)(=O)N2CCCC2C(=O)O)cc1)C(=O)O` (stereo partly shown) [compound 6] showed a Ki (E. coli TS; [7]) of 242 ± 3 µM.

Compound `O=C(O)CCC[C@H](NC(=O)c1ccc(S(=O)(=O)N2CCCC2C(=O)O)cc1)C(=O)O` (stereo partly shown) [compound 7] has a Ki (E. coli TS; [7]) of 23 ± 6 µM.

Work on `O=C(O)CCCC[C@H](NC(=O)c1ccc(S(=O)(=O)N2CCCC2C(=O)O)cc1)C(=O)O` (stereo partly shown) [compound 8] yielded a Ki (E. coli TS; [7]) of 32 ± 2 µM.

Work on `O=C(O)CCCCC[C@H](NC(=O)c1ccc(S(=O)(=O)N2CCCC2C(=O)O)cc1)C(=O)O` (stereo partly shown) [compound 9] yielded a Ki (E. coli TS; [7]) of 14 ± 6 µM.

`NC(=O)[C@H](CCC(=O)O)NC(=O)c1ccc(S(=O)(=O)N2CCCC2C(=O)O)cc1` (stereo partly shown) [compound 10] gave a Ki (E. coli TS; [7]) of 378 ± 69 µM.

For `NC(=O)CC[C@H](NC(=O)c1ccc(S(=O)(=O)N2CCCC2C(=O)O)cc1)C(=O)O` (stereo partly shown) [compound 11], the Ki (E. coli TS; [7]) was 61 ± 14 µM.

`O=C(O)CCCNC(=O)c1ccc(S(=O)(=O)N2CCCC2C(=O)O)cc1` (stereo not shown) [compound 12] gave a Ki (E. coli TS; [7]) of 246 ± 46 µM.

With `CC(=O)SCC(=O)N[C@@H](CC(=O)O)C(=O)COC(=O)c1c(Cl)cccc1Cl` [compound 13, 2,6-Dichloro-benzoic acid 3-(2-acetylsulfanyl-acetylamino)-4-carboxy-2-oxo-butyl ester] the “modification of caspase 3 large subunit” value (caspase-3 [1]) was “complete modification”.

With `O=C[C@H](CC(=O)O)NC(=O)CCCCCNS(=O)(=O)c1cccc(C(=O)O)c1` [compound 19] the Ki (caspase-3 [2]; Table 4) was 15.3 µM and the “change of binding affinity relative to compound 18” value (caspase-3 [2]) was “reduced the affinity by a factor of five”.

In the case of `O=C[C@H](CC(=O)O)NC(=O)CCCCCNS(=O)(=O)c1ccccc1` [compound 20], the Ki (caspase-3 [2]; Table 4) is reported as over 100 µM and the “change of binding affinity relative to compound 18” value (caspase-3 [2]) is reported as “ablated binding affinity entirely”.

For `O=C[C@H](CC(=O)O)NC(=O)c1ccc(CNS(=O)(=O)c2ccc(O)c(C(=O)O)c2)cc1` [compound 21], the Ki (caspase-3 [2]) was about 0.16 µM, the “Ki better than compound 18” value (caspase-3 [2]) was “more than 10 fold” and the Ki (caspase-3 [2]; Table 4) was 0.16 µM. For the same compound, the “improvement of binding by addition of the salicylate sulfonamide” value (caspase-3 [2]; versus salicylate sulfonamide-less fragment) was “about 200 fold”.

`CS(=O)(=O)c1ccc(C(=O)NCCCS(=O)(=O)Cc2cccc(S(=O)(=O)N[C@H](C=O)CC(=O)O)c2)s1` [compound 22] gave a Ki (caspase-3 [2]) of 0.33 µM.

In the case of `O=C(O)C[C@H](NC(=O)OCc1ccccc1)C(=O)C1CS1` (stereo partly shown) [compound 40], the “stability as solution in methanol” value [3] is reported as “stable for months” and the “stability in DMSO” value [3] is reported as “not stable”.

`CC(=O)N[C@@H](CCC(=O)O)C(=O)N[C@H](C(=O)N[C@H](C=O)CC(=O)O)C(C)C` [compound I, reference compound] gave a Ki (caspase-3 [2]) of 0.051 µM.

In the case of `CC(C)[C@H](NC(=O)[C@H](CCC(=O)O)NS(=O)(=O)c1ccc(O)c(C(=O)O)c1)C(=O)N[C@H](C=O)CC(=O)O` [compound II], the “decrease in binding affinity versus compound I” value (caspase-3 [2]; addition of salicylate sulfonamide moiety to compound I) is reported as about 300 fold.

For `NCCSSCCNS(=O)(=O)c1ccc(O)c(C(=O)O)c1` [ligand candidate 15], the selection in tethering [4] was “not selected” and the selection in tethering [5] was “selected”.

In the case of `CS(=O)(=O)c1ccc(C(=O)NCCSSCCN)s1` [ligand candidate 16], the selection in tethering [4] is reported as “selected” and the selection in tethering [5] is reported as “not selected”.

For `NCCSSCCNS(=O)(=O)c1cccc(C(=O)O)c1` [ligand candidate 17], the selection in tethering [4] was “not selected” and the selection in tethering [5] was “not selected”.
